Experimental data reported in patent publication US20240009170A1, “INHIBITION OF GLYCOGEN SYNTHASE KINASE-3 (GSK-3)” (Brown University, priority 2020, published 2024).

Key:
GSK-3 = conditions: cited from earlier work
[1] = system: HCT-116 colorectal cancer cells; assay: Co-culture of HCT-116 and TALL-104 cells with or without αPD-1 therapy; format: cell-based, Human; conditions: for TALL-104-mediated tumor cell killing: αPD-1 antibody added to co-culture, compared to TALL-104 cells alone
Protocol: (§1) Immune cell co-culture experiments. Co-culture experiments were conducted with GFP+ SW480 or HCT-116 colorectal cancer cells and either NK-92 natural killer cells or TALL-104 T cells in a 48-well plate, in the presence or absence of 9-ING-41. HCT-116 cells were labeled using CellTracker™ Green CMFDA (5-chloromethylfluorescein diacetate), immune cells (NK-92, TALL-104) were labeled using CellTracker™ Blue CMAC Dye (7-amino-4-chloromethylcoumarin), and ethidium homodimer-1 (EthD-1) was used as a marker of cell death (Invitrogen, Thermo Fisher Scientific, Waltham, MA, USA).
9-ING-41 increases tumor cell death in combination with αPD-1 therapy in a co-culture of HCT-116 colorectal cancer cells and immune cells. The inventors were interested in the applicability of GS3K-3 inhibitors such as 9-ING-41 in combination with immune checkpoint blockade. The inventors next performed co-cultures of immune cells (TALL-104, NK-92) and tumor cells (HCT-116) in the presence or absence of 9-ING-41, as well as either pembrolizumab® or nivolumab®, two humanized monoclonal antibodies against PD-1. The inventors evaluated HCT-116 cells in this co-culture model to determine if the 9-ING-41-mediated increase in immune cell-mediated SW480 cell killing could be reproduced in another colorectal cancer cell line.

[2] = system: HCT-116 colorectal cancer cells; assay: Co-culture of HCT-116 and NK-92 cells with or without αPD-1 therapy; format: cell-based, Human; conditions: not statistically significant
Protocol: as §1

Row | Compound | therapeutic index (GSK-3) | cell death, pembrolizumab+TALL-104 compared to nivolumab+TALL-104 [1] | TALL-104-mediated tumor cell killing [1] | benefit in combination with NK-92 compared to NK-92 alone [2]
1 | [Li] [Lithium] | narrow therapeutic index |  |  | 
2 | pembrolizumab®: humanized monoclonal antibody against PD-1 |  | slight increase in cell death | increased amount of TALL-104-mediated tumor cell killing | limited benefit
3 | nivolumab®: humanized monoclonal antibody against PD-1 |  |  | increased amount of TALL-104-mediated tumor cell killing | limited benefit
